From ChEMBL document CHEMBL1148886, “Synthesis and antibacterial activity of 3-keto-6-O-carbamoyl-11,12-cyclic thiocarbamate erythromycin A derivatives” (2007)
In brackets after ≈: the same amount, converted by molar mass.

Experiments:
Type in all cases: functional
[1] = tested on: Haemophilus influenzae; test: Antibacterial activity against Haemophilus influenzae OC4882 by broth microdilution method
[2] = tested on: Streptococcus pneumoniae; test: Antibacterial activity against erythromycin-susceptible Streptococcus pneumoniae OC9132 by broth microdilution method
[3] = tested on: Staphylococcus aureus; test: Antibacterial activity against erythromycin-susceptible Staphylococcus aureus OC4172 by broth microdilution method
[4] = tested on: Streptococcus pneumoniae; test: Antibacterial activity against erythromycin-resistant Streptococcus pneumoniae OC4051 containing erm(B) by broth microdilution method
[5] = tested on: Streptococcus pneumoniae; test: Antibacterial activity against erythromycin-resistant Streptococcus pneumoniae OC4438 containing mef(A) by broth microdilution method

Work on CC[C@H]1OC(=O)[C@H](C)C(=O)[C@H](C)[C@@H](O[C@@H]2O[C@H](C)C[C@H](N(C)C)[C@H]2O)[C@](C)(OC(N)=O)C[C@@H](C)C(=O)[C@H](C)[C@@H]2NC(=S)O[C@]12C yielded an MIC [1] of 8 µg/mL (≈ 12.2 µM), an MIC [2] of 0.25 µg/mL (≈ 0.38 µM) and an MIC [3] of 4 µg/mL (≈ 6.08 µM).
In the case of CC[C@H]1OC(=O)[C@H](C)[C@@H](O[C@H]2C[C@@](C)(OC)[C@@H](O)[C@H](C)O2)[C@H](C)[C@@H](O[C@@H]2O[C@H](C)C[C@H](N(C)C)[C@H]2O)[C@](C)(O)C[C@@H](C)C(=O)[C@H](C)[C@@H](O)[C@]1(C)O [ERYTHROMYCIN], the MIC [1] is reported as 8 µg/mL (≈ 10.9 µM), the MIC [2] is reported as 0.06 µg/mL (≈ 0.0818 µM) and the MIC [4] is reported as > 16 µg/mL. The MIC [5] was 4 µg/mL (≈ 5.45 µM) and the MIC [3] was 0.5 µg/mL (≈ 0.681 µM).
CC[C@H]1OC(=O)[C@H](C)C(=O)[C@H](C)[C@@H](O[C@@H]2O[C@H](C)C[C@H](N(C)C)[C@H]2O)[C@](C)(OC)C[C@@H](C)C(=O)[C@H](C)[C@H]2N(CCCCn3cnc(-c4cccnc4)c3)C(=O)O[C@]12C [TELITHROMYCIN] showed an MIC [1] of 2 µg/mL (≈ 2.46 µM), an MIC [2] of 0.03 µg/mL (≈ 0.0369 µM) and an MIC [4] of 0.06 µg/mL (≈ 0.0739 µM). It also gave an MIC [5] of 0.25 µg/mL (≈ 0.308 µM) and an MIC [3] of 0.25 µg/mL (≈ 0.308 µM).
